Experimental data from patent US8741836B2, “Polypeptides” (Novo Nordisk A/S, priority 2011, dated 2014).
Starred links: 1 amine or outer side, 2 acyl side, 3 side chain; linkers in the order of their positions; H or OH if unused. Positions of bridges follow the written chain, without caps; N, C: chain ends. Residues, ends and D or L forms follow the SMILES beside them. *: point of attachment. C20 diacid = O=C(O)CCCCCCCCCCCCCCCCCCC(=O)*; γGlu = O=C(O)[C@H](CCC(=O)[*:2])N[*:1]

How the values were obtained:
ad libitum fed rat = assay: Assay (I) efficacy testing on appetite (food intake) using an ad libitum fed rat model; format: in vivo, Sprague Dawley (SD) rats; conditions: 3 nmol/kg
Outline: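 Ad libitum fed Sprague Dawley rats, 200-250 g, singly housed on reversed light cycle, got one ip, po or sc dose of 0.01-3 mg/kg just before lights off; groups of 5-8 with vehicle control. Food intake recorded hourly for 7 h, then at 24 h and sometimes 48 h; Grubbs outliers excluded.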

[1] = Assay (III) ThT fibrillation assay for physical stability; format: physicochemical; conditions: for ThT pH 4.0 lag time: pH 4.0, ThT fibrillation assay
Outline: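 Freshly prepared, pH-adjusted formulations with 1 μM ThT incubated at 37 °C under 960 rpm orbital shaking (1 mm), fluorescence (ex 444, em 485 nm) read every 20 min. […] Peptide content before and after measured by reverse-phase HPLC against pramlintide standard.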

ThT pH 4.0 lag time [1] | ThT pH 4.0 lag time (physical stability in fibrillogenesis assay) [1] | SMILES | Food intake reduction 0-24 h 3 nmol/kg (%) (ad libitum fed rat) | Food intake reduction 24-48 h 3 nmol/kg (%) (ad libitum fed rat)
>45 h |  | CC[C@H](C)[C@H](NC(=O)[C@@H]1CCCN1C(=O)CNC(=O)[C@H](Cc1ccccc1)NC(=O)[C@H](CC(N)=O)NC(=O)[C@H](CC(N)=O)NC(=O)[C@H](CO)NC(=O)[C@H](CO)NC(=O)[C@H](Cc1c[nH]cn1)NC(=O)[C@H](CCCNC(=N)N)NC(=O)[C@H](CC(C)C)NC(=O)[C@H](Cc1ccccc1)NC(=O)[C@H](CCC(=O)O)NC(=O)[C@H](C)NC(=O)[C@H](CC(C)C)NC(=O)[C@H](CCCNC(=N)N)NC(=O)[C@H](CCC(N)=O)NC(=O)[C@@H](NC(=O)[C@H](C)NC(=O)[C@@H]1CSSC[C@H](NC(=O)[C@H](CCCCN)NC(=O)CC[C@H](NC(=O)CCCCCCCCCCCCCCCCCCC(=O)O)C(=O)O)C(=O)N[C@@H](CC(N)=O)C(=O)N[C@@H]([C@@H](C)O)C(=O)N[C@@H](C)C(=O)N[C@@H]([C@@H](C)O)C(=O)N1)[C@@H](C)O)C(=O)N[C@@H](CC(C)C)C(=O)N1CCC[C@H]1C(=O)N1CCC[C@H]1C(=O)N[C@H](C(=O)N[C@@H](CC(N)=O)C(=O)N[C@H](C(=O)NCC(=O)N[C@@H](CO)C(=O)N[C@@H](CC(N)=O)C(=O)N[C@H](C(=O)N[C@@H](Cc1ccc(O)cc1)C(N)=O)[C@@H](C)O)C(C)C)[C@@H](C)O [Example 50, N-alpha-[(S)-4-Carboxy-4-(19-carboxynonadecanoylamino)butyryl]-[Glu14,Arg17]-pramlintide] ({C20 diacid-γGlu}-KCNTATCATQRLAEFLRHSSNNFGPILPPTNVGSNTY-NH2; disulfide 2-7 (inferred); C-terminus assumed) | 30% | 8%
>45 h | >45 h | CC[C@H](C)[C@H](NC(=O)[C@@H]1CCCN1C(=O)CNC(=O)[C@H](Cc1ccccc1)NC(=O)[C@H](CC(N)=O)NC(=O)[C@H](CC(N)=O)NC(=O)[C@H](CO)NC(=O)[C@H](CO)NC(=O)[C@H](Cc1c[nH]cn1)NC(=O)[C@H](CCCNC(=N)N)NC(=O)[C@H](CC(C)C)NC(=O)[C@H](Cc1ccccc1)NC(=O)[C@H](CCC(=O)O)NC(=O)[C@H](C)NC(=O)[C@H](CC(C)C)NC(=O)[C@H](CCCNC(=N)N)NC(=O)[C@H](CCC(N)=O)NC(=O)[C@@H](NC(=O)[C@H](C)NC(=O)[C@@H]1CSSC[C@H](NC(=O)[C@H](Cc2c[nH]cn2)NC(=O)CNC(=O)CC[C@H](NC(=O)CCCCCCCCCCCCCCCCCCC(=O)O)C(=O)O)C(=O)N[C@@H](CC(N)=O)C(=O)N[C@@H]([C@@H](C)O)C(=O)N[C@@H](C)C(=O)N[C@@H]([C@@H](C)O)C(=O)N1)[C@@H](C)O)C(=O)N[C@@H](CC(C)C)C(=O)N1CCC[C@H]1C(=O)N1CCC[C@H]1C(=O)N[C@H](C(=O)N[C@@H](CC(N)=O)C(=O)N[C@H](C(=O)NCC(=O)N[C@@H](CO)C(=O)N[C@@H](CC(N)=O)C(=O)N[C@H](C(=O)N1CCC[C@H]1C(N)=O)[C@@H](C)O)C(C)C)[C@@H](C)O [Example 89, N-alpha-[(S)-4-Carboxy-4-(19-carboxynonadecanoylamino)butyryl]-Gly-[His1,Glu14,Arg17,Pro37]-pramlintide] ({C20 diacid-γGlu}-GHCNTATCATQRLAEFLRHSSNNFGPILPPTNVGSNTP-NH2; disulfide 3-8 (inferred)) | 42% | 23%
>45 h | >45 h | CC[C@H](C)[C@H](NC(=O)[C@@H]1CCCN1C(=O)CNC(=O)[C@H](Cc1ccccc1)NC(=O)[C@H](CC(N)=O)NC(=O)[C@H](CC(N)=O)NC(=O)[C@H](CO)NC(=O)[C@H](CO)NC(=O)[C@H](Cc1c[nH]cn1)NC(=O)[C@H](Cc1c[nH]cn1)NC(=O)[C@H](CC(C)C)NC(=O)[C@H](Cc1ccccc1)NC(=O)[C@H](CCC(=O)O)NC(=O)[C@H](C)NC(=O)[C@H](CC(C)C)NC(=O)[C@H](CCCNC(=N)N)NC(=O)[C@H](CCC(N)=O)NC(=O)[C@@H](NC(=O)[C@H](C)NC(=O)[C@@H]1CSSC[C@H](NC(=O)[C@H](CCCNC(=N)N)NC(=O)CC[C@H](NC(=O)CCCCCCCCCCCCCCCCCCC(=O)O)C(=O)O)C(=O)N[C@@H](CC(N)=O)C(=O)N[C@@H]([C@@H](C)O)C(=O)N[C@@H](C)C(=O)N[C@@H]([C@@H](C)O)C(=O)N1)[C@@H](C)O)C(=O)N[C@@H](CC(C)C)C(=O)N1CCC[C@H]1C(=O)N1CCC[C@H]1C(=O)N[C@H](C(=O)N[C@@H](CC(N)=O)C(=O)N[C@H](C(=O)NCC(=O)N[C@@H](CO)C(=O)N[C@@H](CC(N)=O)C(=O)N[C@H](C(=O)N1CCC[C@H]1C(N)=O)[C@@H](C)O)C(C)C)[C@@H](C)O [Example 96, N-alpha-[(S)-4-Carboxy-4-(19-carboxynonadecanoylamino)butyryl]-[Arg1,Glu14,His17,Pro37]-pramlintide] ({C20 diacid-γGlu}-RCNTATCATQRLAEFLHHSSNNFGPILPPTNVGSNTP-NH2; disulfide 2-7) | 69% | 89%
>45 h | >45 h | CC[C@H](C)[C@H](NC(=O)[C@@H]1CCCN1C(=O)CNC(=O)[C@H](Cc1ccccc1)NC(=O)[C@H](CC(N)=O)NC(=O)[C@H](CC(N)=O)NC(=O)[C@H](CO)NC(=O)[C@H](CO)NC(=O)[C@H](Cc1c[nH]cn1)NC(=O)[C@H](CCCNC(=N)N)NC(=O)[C@H](CC(C)C)NC(=O)[C@H](Cc1ccccc1)NC(=O)[C@H](CCC(=O)O)NC(=O)[C@H](C)NC(=O)[C@H](CC(C)C)NC(=O)[C@H](CCCNC(=N)N)NC(=O)[C@H](CCC(N)=O)NC(=O)[C@@H](NC(=O)[C@H](C)NC(=O)[C@@H]1CSSC[C@H](NC(=O)[C@H](CCCCN)NC(=O)CC[C@H](NC(=O)CCCCCCCCCCCCCCCCCCC(=O)O)C(=O)O)C(=O)N[C@@H](CC(N)=O)C(=O)N[C@@H]([C@@H](C)O)C(=O)N[C@@H](C)C(=O)N[C@@H]([C@@H](C)O)C(=O)N1)[C@@H](C)O)C(=O)N[C@@H](CC(C)C)C(=O)N1CCC[C@H]1C(=O)N1CCC[C@H]1C(=O)N[C@H](C(=O)N[C@@H](CC(N)=O)C(=O)N[C@H](C(=O)NCC(=O)N[C@@H](CO)C(=O)N[C@@H](CC(N)=O)C(=O)N[C@H](C(=O)N1CCC[C@H]1C(N)=O)[C@@H](C)O)C(C)C)[C@@H](C)O [Example 53, N-alpha-[(S)-4-Carboxy-4-(19-carboxynonadecanoylamino)butyryl]-[Glu14,Arg17,Pro37]-pramlintide] | 40% | 28%
